# Measured values published in patent US9521848B2, “Tetrazolinone compound and use therefor” (Sumitomo Chemical Company, Limited, priority 2013, dated 2016).
# Tests used:
# [1] = system: cotton aphid (Aphis gossypii); assay: Cotton aphid control test on cucumber, spray (Test Example 19); type: in vivo; conditions: 500 ppm, 20 mL sprayed on cucumber with 30 aphids; surviving insects counted after 6 days
# Procedure: A water dilution (test chemical solution) containing a surfactant prepared by adjusting so as to contain a predetermined concentration (500 ppm) of the present compound 21 was used as a test chemical solution. Thirty (30) heads of cotton aphid (Aphis gossypii) (including adults and larvae) were released on the leaves of cucumber (cultivar; […]) grown in a polyethylene cup until the first true leaf was developed. Next day, 20 mL of the above test chemical solution was sprayed. After 6 days, the number of the surviving insects was counted and the control value was calculated by the following equation. Control value (%)={1-(Cb×Tai)/(Cai×Tb)}×100 wherein symbols in the equation represent the followings: Cb: Number of insects before spraying chemical solution in untreated area; Cai: Number of surviving insects in untreated area; Tb: Number of insects before spraying chemical solution in treated area; and Tai: Number of surviving insects in treated area.
# [2] = system: wheat rust fungus (Puccinia recondita); assay: Wheat rust control test, foliar spray before inoculation (Test Examples 3, 4, Comparative Test Example); type: in vivo; conditions: 200 ppm foliar spray, wheat (SHIROGANE), inoculated 5 days after spraying
# Procedure: The control effect was evaluated by visually observing the area of lesion spots on each of test plants at the time of investigation, and comparing the area of lesion spots on a plant treated with the present compound with that on an untreated plant.
# Each of plastic pots was filled with sandy loam and wheat (cultivar: SHIROGANE) was sowed and grown in a greenhouse for 9 days. Then, each water dilution containing a surfactant prepared by adjusting so as to contain a predetermined concentration (500 ppm) of any one compound of the present compounds 1, 18, 19, 20, 21, 27, 30, and 38 was sprayed over stems and leaves of the wheat so that it sufficiently adhered to the surface of the leaves of the wheat. After spraying, the plant was air-dried so as to dry the dilution on the surface of the leaves. After spraying, the plant was air-dried and cultivated at 20° C. for 5 days under illumination, and then inoculated by sprinkling with spores of wheat rust fungus (Puccinia recondita). After the inoculation, the plant was left to stand at 23° C. for one day under dark and high humidity condition, and cultivated under illumination at 20° C. for 8 days, and then the area of lesion spots was investigated.
# Each of plastic pots was filled with sandy loam and wheat (cultivar: SHIROGANE) was sowed and grown in a greenhouse for 9 days. […]
SMILES,control value [1],area of lesion spots on the treated plant relative to that on an untreated plant [2]
Cc1ccc(-c2cnc(OCc3c(C)cccc3-n3nnn(C)c3=O)c(C)c2)cc1 [Present Compound 21],≥ 90%,–
"Cc1cccc(-n2nnn(C)c2=O)c1COc1cncc(Oc2ccccc2)c1 [1-[2-{5-phenoxypyridin-3-yloxymethyl}-3-methylphenyl]-4-methyl-1,4-dihydrotetrazol-5-one]",–,≥ 70%
